Results on 1 molecule are retold here after patent US8829028B2, “5-HT4 receptor antagonists for the treatment of heart failure” (Serodus AS, priority 2002, dated 2014).

Assay [1] has as its target T1, 5-HT4 receptor (Homo sapiens, UniProt Q13639). To be noted: Gale et al., 1994; cited from earlier work.
Assay [2] deals with T1, 5-HT4 receptor. Put plainly: Inotropic response in trabecular muscle from explanted human heart with dilated cardiomyopathy (IBMX present). The arrangement: Trabecular muscles were prepared, mounted in organ baths; from tissue; host or cells: trabecular muscle from explanted human hearts (post-infarct; dilated cardiomyopathy). Conditions: 1 μM GR113808 after 10 μM serotonin; IBMX 35 μM. The assay is classed as cell-based.

The target of assay [3] is T2, 5-HT4 receptor (Rattus norvegicus, UniProt Q62758).
T2 construct: The papillary muscles were mounted in organ baths; from tissue; host or cells: rat posterior left ventricular papillary muscle (post-MI or aortic-banding heart failure)
Description: Antagonism of the serotonin inotropic response by 5-HT4 antagonists in post-MI rat papillary muscle (reversal, curve shift, Schild Kb). The assay is classed as cell-based. The protocol:
The muscles were field stimulated with alternating polarity at 1 Hz with impulses of 5 msec duration and current about 20% above individual threshold (10-15 mA, determined in each experiment). The isometrically contracting muscles were stretched to the maximum of their length-tension curve. The force was recorded and analysed as previously described (Skomedal et al., 1997, J. Pharmacol. Exp. Ther. 280: 721-729). The muscles were allowed to equilibrate for 90 minutes. […] Averaged contraction-relaxation cycles (CRC) were calculated for different experimental periods, and these cycles were used to determine descriptive parameters like maximal development of force (dF/dt)max, time to peak force (TPF) and time to relaxation to 20% level (TR2O). Relaxation time (RT) was calculated as TR2O-TPF. (dF/dt)max was used as an index of contractility. Inotropic responses induced by agonists were expressed by increase in (dF/dt)max. RT was used as index of relaxation. Lusitropic responses were expressed as reduction in RT. Mechanical response at the end of the equilibrium period was used as the control response.
Agonist was added cumulatively or as a single bolus directly to the organ baths and was completely mixed in the solution within 2-3 seconds. […] The different agonists were added directly to the organ baths in increasing concentrations until supramaximal concentrations of agonist were obtained with respect to maximal inotropic response.
The responses for each concentration of agonist were generally calculated as percent of maximal response. The concentration-response curves constructed from papillary muscle experiment were constructed according to Ariens and Simonis (1964, supra), by estimating centiles (EC10 to EC100) for each single experiment and calculating the corresponding means. This calculation provides mean curves that express the response as fractional response or percent of maximum and display horizontal positioning and the correct mean slope of the curves. The horizontal positioning of the concentration-response curves was expressed as pEC50-values (=−log EC50). Data are expressed as mean±standard error of the mean (SEM) and the number of animals expressed as n. The significance levels of differences were calculated according to Students t-test. P<0.05 is considered statistically significant. The inhibition constants Kb were calculated from the Schild equation, based on the relative shifts of the concentration-response curves for receptor stimulation.

Assay [4] addresses T2, 5-HT4 receptor. Description: 5-HT4 receptor-mediated inotropic response in papillary muscle of CHF rat 6 weeks after aortic banding. The assay is classed as cell-based. Conditions: 1 μM GR113808 after 10 μM serotonin.
Description: Trans-aortic constriction (aortic banding) of the ascending aorta was induced in 200 g male Wistar rats under anaesthesia, induced by 63% N2O, 32% O2 and 5% Isoflurane and maintained by 66% N2O, 33% O2 and 1-2% Isoflurane. A right-sided thoracotomi was performed through a 3-4 cm long cutaneous incision, the pericardium was opened and the ascending aorta identified and dissected free of surrounding tissue. A ligature was knit around the ascending aorta and a metal probe with diameter 0.9 mm. The metal probe was then removed. The result was a constriction of the ascending aorta with internal diameter about 0.9 mm. The thorax was then closed with 3-0 silk sutures and the skin closed with Dexon 1 sutures. […]
Papillary muscle was extracted from a CHF rat 6 weeks after aortic banding as described above. osterior left ventricular papillary muscle was prepared, mounted in organ bath, equilibrated and field stimulated at 1 Hz (Sjaastad et al. 2003 supra), and the contraction-relaxation cycles (CRCs) were recorded and analysed as previously described (Skomedal et al. 1997, J. Pharmacol Exp Ther 280: 721-729) (Sjaastad et al., 2003, supra) with respect to maximal developed force (Fmax), maximal development of force (dF/dt)max, time to peak force (TPF), time to relaxation to 20% level (TR20) and relaxation time (RT=TR20-TPF).
In assay [5] the target is T1, 5-HT4 receptor. Put plainly: Inotropic response in trabecular muscle from explanted post-infarct human heart. The assay is classed as cell-based. More on the design: Trabecular muscles were prepared, mounted in organ baths; from tissue; host or cells: trabecular muscle from explanted human hearts (post-infarct; dilated cardiomyopathy). To be noted: 1 μM GR113808 after 10 μM serotonin. As for the experimental part: The heart was explanted from a patient who had survived a small myocardial infarction and died in hospital from subarachnoidal haemorrhage. Trabecular muscles were prepared, mounted in organ baths, equilibrated and field stimulated at 1 Hz (Skomedal et al., 1997, supra) and the contraction-relaxation cycles (CRCs) were recorded and analysed as previously described (Skomedal et al., 1997, supra) with respect to maximal developed force (Fmax), maximal development of force (dF/dt)max, time to peak force (TPF), time to relaxation to 20% level (TR20) and relaxation time (RT=TR20-TPF).

T1 sequence (Q13639 whole entry): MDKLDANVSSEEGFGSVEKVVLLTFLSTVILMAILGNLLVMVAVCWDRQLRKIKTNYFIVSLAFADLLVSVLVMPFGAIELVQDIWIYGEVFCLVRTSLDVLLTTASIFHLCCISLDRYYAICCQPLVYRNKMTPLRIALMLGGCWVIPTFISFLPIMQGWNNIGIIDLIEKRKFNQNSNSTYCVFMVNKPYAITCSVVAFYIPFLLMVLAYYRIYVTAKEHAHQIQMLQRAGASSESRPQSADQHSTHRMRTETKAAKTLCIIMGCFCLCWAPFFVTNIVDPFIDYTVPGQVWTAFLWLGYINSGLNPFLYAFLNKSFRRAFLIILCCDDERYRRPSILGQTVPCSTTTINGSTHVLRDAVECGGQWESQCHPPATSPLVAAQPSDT
T2 sequence (Q62758 whole entry): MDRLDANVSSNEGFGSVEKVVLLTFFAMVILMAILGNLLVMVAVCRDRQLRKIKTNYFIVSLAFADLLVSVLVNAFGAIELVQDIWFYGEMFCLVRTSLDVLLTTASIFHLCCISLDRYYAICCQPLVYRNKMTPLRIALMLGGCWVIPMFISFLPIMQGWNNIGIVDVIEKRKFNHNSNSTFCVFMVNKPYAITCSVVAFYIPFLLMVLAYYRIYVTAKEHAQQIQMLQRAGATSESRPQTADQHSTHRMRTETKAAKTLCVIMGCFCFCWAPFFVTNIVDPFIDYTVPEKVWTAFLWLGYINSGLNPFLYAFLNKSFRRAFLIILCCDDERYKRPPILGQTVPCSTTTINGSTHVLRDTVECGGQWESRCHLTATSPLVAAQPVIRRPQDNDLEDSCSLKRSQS

Take `Cn1cc(C(=O)OCC2CCN(CCNS(C)(=O)=O)CC2)c2ccccc21` [GR113808, {1-[2-(methyl-sulphonylamino)ethyl]-4-piperidinyl}methyl 1-methyl-1H-indole-3-carboxylate]: the pKi in assay [1] is 9.2-9.7. Moreover, the “reversal of the positive inotropic response to serotonin” value in assay [2], in assay [4] and in assay [5] was “reversed” in each case. In addition, the Kb in assay [3] turned out to be 0.5 nM. Further, in assay [3], the “reversal of the inotropic response evoked by 10 μmol/l serotonin” value is “completely reversed”. Besides, the “reversal of the serotonin-induced shortening of the contraction-relaxation cycles” value in assay [3] was “not completely reversed”.
